Results reported in patent publication US20260198495A1, “BINARY INSECTICIDE COMPOSITION AND USE THEREOF” (SHENYANG SINOCHEM AGROCHEMICALS R & D CO., LTD., priority 2022, published 2026).
≈ marks a conversion by molar mass, not a printed value.

How the values were obtained:
Assay type in all cases: in vivo
[1] = tested on: adult Phyllotreta vittuta Fabr.; test: Joint toxicity of I-72 + acetamiprid, Example 65, Table 65; conditions: 72 h
Method: (§1) Test target: adult Phyllotreta vittuta Fabr.
(§2) Preparation of the pesticide solution: according to different test requirements, the test samples were accurately weighed respectively with an electronic analytical balance. The technical pesticides were dissolved in acetone, and then diluted with 0.1% Tween 80 water into a series of pesticide solutions with a certain concentration gradient according to the experimental design dosage.
(§3) Experimental method: first, uniform and consistent potted cabbage seedlings were selected. Then, uniform spraying was performed with the pesticide solution in the order from low dosage to high dosage according to the experimental design. After air-drying in the shade, adult flea beetles were transferred onto the treated cabbage seedlings, and then glass covers were put on them, with about 30-40 adult flea beetles on each seedling and 3 replicates for each treatment. In addition, a blank control was set up.
(§4) The treated test materials were placed in an observation room, and the temperature, humidity and illumination of the observation room could be adjusted as needed. The number of dead and live insects was investigated 72 hours later.

[2] = tested on: Nilaparvata lugens (Stal) nymphs; test: Joint toxicity of I-72 + buprofezin, Example 52, Table 52; conditions: 72 h
Method: (§5) Test target: Nilaparvata lugens (Stal) nymphs, a sensitive strain reared indoors.
as §2
(§6) Experimental method: the activity of the mixture against the Nilaparvata lugens (Stal) nymphs was determined by adopting the potted-seedling spraying method. First, rice seedlings were planted in culture pots. Uniform spraying was performed with the pesticide solution in the order from low dosage to high dosage according to the experimental design, with 2 mL for each seedling. Then, Nilaparvata lugens nymphs of uniform size were transferred onto the rice seedlings, with 3 replicates for each treatment. In addition, a blank control was set up.
as §4, with “later. […] Then, the co-toxicity coefficient of each ratio was calculated using the Sun Y-P method to evaluate the mixing effect, as in Example 1.” for “later.”

[3] = tested on: 3rd-instar larvae of Chilo suppressalis (Walker); test: Joint toxicity of I-72 + chlorantraniliprole, Example 57, Table 57; conditions: in Oryza sativa, 72 h
Method: (§7) Test target: 3rd-instar larvae of Chilo suppressalis (Walker).
as §2
(§8) Experimental method: first, tender rice stems were selected and dipped in the prepared pesticide solution for 10 s in the order from low dosage to high dosage according to the experimental design. After natural air-drying in the shade, they were placed in a 9-cm-diameter Petri dish with filter paper, and uniform and healthy test insects were introduced, with 10 insects for each treatment and 3 replicates for each treatment. In addition, a blank control (CK) was set up.
as §4, with “later. […] Then, the co-toxicity coefficient of each ratio was calculated using the Sun Y-P method to evaluate the mixing effect, as in Example 1.” for “later.”

[4] = tested on: Myzus persicae (Sulzer) nymphs; test: whole plant or invertebrate; conditions: in Brassica oleracea, 48 h
Method: (§9) Test target: Myzus persicae (Sulzer) nymphs, a sensitive strain reared indoors.
as §2
(§10) Experimental method: first, cabbage leaves with uniform and consistent Myzus persicae (Sulzer) were selected, with about 30-40 insects on each leaf. Then, they were evenly sprayed with the pesticide solution in the order from low dosage to high dosage according to the experimental design, with 1.5 mL of the solution for each leaf and 3 replicates for each treatment. In addition, a blank control was set up.
(§11) The treated test materials were placed in an observation room, and the temperature, humidity and illumination of the observation room could be adjusted as needed. The number of dead and live insects was investigated 48 hours later.

[5] = tested on: adult Phyllotreta vittuta Fabr.; test: Joint toxicity of I-72 + cyantraniliprole, Example 63, Table 63; conditions: 72 h
Method: as §1, §2, §3
as §4, with “later. […] Then, the co-toxicity coefficient of each ratio was calculated using the Sun Y-P method to evaluate the mixing effect (the same as in Example 1).” for “later.”

[6] = tested on: Myzus persicae (Sulzer) nymphs; test: Joint toxicity of I-72 + cyantraniliprole, Example 59, Table 59; conditions: in Brassica oleracea, 48 h
Method: as §9, §2, §10
as §11, with “later. […] Then, the co-toxicity coefficient of each ratio was calculated using the Sun Y-P method to evaluate the mixing effect (the same as in Example 1).” for “later.”

[7] = tested on: Liriomyza sativae Blanchard larvae; test: Joint toxicity of I-72 + cyromazine, Example 55, Table 55; conditions: in Phaseolus vulgaris
Method: Test target: Liriomyza sativae Blanchard larvae.
as §2
Experimental method: first, kidney bean seedlings with the Liriomyza sativae Blanchard larvae (the larvae had just invaded and formed mines) were selected. Spraying treatments were performed in the order from low dosage to high dosage according to the experimental design, with 3 replicates for each treatment. In addition, a blank control was set up.
(§12) The treated test materials were placed in an observation room, and the temperature, humidity and illumination of the observation room could be adjusted as needed. After the larvae in the blank control group pupated, the numbers of dead and live insects were then counted. […] Then, the co-toxicity coefficient of each ratio was calculated using the Sun Y-P method to evaluate the mixing effect (the same as in Example 1).

[8] = tested on: Frankliniella occidentalis nymphs; test: whole plant or invertebrate; conditions: in Phaseolus vulgaris, foliar, 48 h
Method: Test target: Frankliniella occidentalis nymphs.
as §2
as §8, with “first, kidney bean leaves” for “first, tender rice stems”, “with 20-30” for “with 10”, “control” for “control (CK)”
as §12, with “The number” for “After the larvae in the blank control group pupated, the numbers”, “was investigated 48 hours later.” for “were then counted.”

[9] = tested on: Myzus persicae (Sulzer) nymphs; test: Joint toxicity of I-72 + fenvalerate, Example 46, Table 46; conditions: in Brassica oleracea, 48 h
Method: as §9, §2, §10
as §12, with “The number” for “After the larvae in the blank control group pupated, the numbers”, “was investigated 48 hours later.” for “were then counted.”

[10] = tested on: 3-instar larvae of Ostrinia furnacnlis Guenee; test: Joint toxicity of I-72 + flubendiamide, Example 61, Table 61; conditions: in Zea mays, 72 h
Method: Test target: 3-instar larvae of Ostrinia furnacnlis Guenee.
as §2
as §8, with “corn” for “rice”, “control” for “control (CK)”
as §12, with “The number” for “After the larvae in the blank control group pupated, the numbers”, “was investigated 72 hours later.” for “were then counted.”

[11] = tested on: 2nd-instar larvae of Mythimna separata; test: Joint toxicity of I-72 + hexaflumuron, Example 56, Table 56; conditions: in Zea mays, foliar, 72 h
Method: Test target: 2nd-instar larvae of Mythimna separata.
as §2
as §8, with “corn leaves” for “tender rice stems”, “control” for “control (CK)”
as §12, with “The number” for “After the larvae in the blank control group pupated, the numbers”, “was investigated 72 hours later.” for “were then counted.”

[12] = tested on: Nilaparvata lugens (Stal) nymphs; test: Joint toxicity of I-72 + imidacloprid, Example 70, Table 70; conditions: 72 h
Method: as §5, §2, §6
as §12, with “The number” for “After the larvae in the blank control group pupated, the numbers”, “was investigated 72 hours later.” for “were then counted.”

[13] = tested on: 2nd-instar larvae of Spodoptera exigua Hübner; test: Joint toxicity of I-72 + lufenuron, Example 54, Table 54; conditions: in Brassica oleracea, foliar, 72 h
Method: (§13) Test target: 2nd-instar larvae of Spodoptera exigua Hübner.
as §2
as §8, with “cabbage leaves” for “tender rice stems”, “control” for “control (CK)”
as §12, with “The number” for “After the larvae in the blank control group pupated, the numbers”, “was investigated 72 hours later.” for “were then counted.”

[14] = tested on: 3rd-instar larvae of Chilo suppressalis (Walker); test: Joint toxicity of I-72 + methoxyfenozide, Example 53, Table 53; conditions: in Oryza sativa, 72 h
Method: as §7, §2
as §8, with “control” for “control (CK)”
as §12, with “The number” for “After the larvae in the blank control group pupated, the numbers”, “was investigated 72 hours later.” for “were then counted.”

[15] = tested on: Aphis gossypii Glover nymphs; test: Joint toxicity of I-72 + nitenpyram, Example 67, Table 67; conditions: 48 h
Method: Test target: Aphis gossypii Glover nymphs, a sensitive strain reared indoors.
as §2
as §10, with “cotton” for “cabbage”, “Aphis gossypii” for “Myzus persicae (Sulzer)”, “mL” for “mL of the solution”
as §12, with “The number” for “After the larvae in the blank control group pupated, the numbers”, “was investigated 48 hours later.” for “were then counted.”

Aphis craccivora nymphs = test: whole plant or invertebrate; conditions: in Vicia faba, 48 h
Method: Test target: Aphis craccivora nymphs, a sensitive strain reared indoors.
as §2
as §10, with “broad bean seedlings” for “cabbage leaves”, “Aphis craccivora” for “Myzus persicae (Sulzer)”, “seedling.” for “leaf.”
as §11

[16] = tested on: 2nd-instar larvae of Spodoptera exigua Hübner; test: whole plant or invertebrate; conditions: A = compound I-72, B = tetrachlorantraniliprole; cabbage leaf dipping; 72 hours
Method: as §13, §2
as §8, with “cabbage leaves” for “tender rice stems”, “control” for “control (CK)”
as §4

[17] = tested on: 2nd-instar larvae of Plutella xylostella; test: Joint toxicity of I-72 + tetraniliprole, Example 58, Table 58; conditions: A = compound I-72, B = tetraniliprole; cabbage leaf dipping; 72 hours
Method: Test target: 2nd-instar larvae of Plutella xylostella.
as §2
as §8, with “cabbage leaves” for “tender rice stems”, “control” for “control (CK)”
as §12, with “The number” for “After the larvae in the blank control group pupated, the numbers”, “was investigated 72 hours later.” for “were then counted.”

[18] = tested on: 3rd-instar larvae of Yponomeuta evonymallus (Linnaeus); test: Joint toxicity of I-72 + thiamethoxam, Example 66, Table 66; conditions: A = compound I-72, B = thiamethoxam; leaf dipping; 72 hours
Method: Test target: 3rd-instar larvae of Yponomeuta evonymallus (Linnaeus).
as §2
as §8, with “Hylotelephium spectabile leaves” for “tender rice stems”, “control” for “control (CK)”
as §4

[19] = tested on: Thrips flavus Schrank nymphs; test: Joint toxicity of I-72 + tolfenpyrad, Example 62, Table 62; conditions: in Solanum melongena, 48 h
Method: Test target: Thrips flavus Schrank nymphs.
as §2
Experimental method: first, eggplant seedlings with Thrips flavus Schrank were selected, and the base number was counted. Then, uniform spraying was performed with the pesticide solution in the order from low to high doses according to the experimental design, with 2 mL for each seedling and 3 replicates for each treatment. In addition, a blank control was set up.
as §12, with “The number” for “After the larvae in the blank control group pupated, the numbers”, “was investigated 48 hours later.” for “were then counted.”

[20] = tested on: Lipaphis erysimi (Kaltenbach); test: Joint toxicity of I-72 + pyrethrin, Example 47, Table 47; conditions: A = compound I-72, B = pyrethrin; cabbage leaf spraying; 48 hours
Method: Test target: Lipaphis erysimi (Kaltenbach).
as §2
as §10, with “Lipaphis erysimi (Kaltenbach)” for “Myzus persicae (Sulzer)”
as §12, with “The number” for “After the larvae in the blank control group pupated, the numbers”, “was investigated 48 hours later.” for “were then counted.”

C/C(=N\C#N)N(C)Cc1ccc(Cl)nc1 [acetamiprid]
LC50 [1]: 7.92 µg/mL

CC(C)N1C(=O)N(c2ccccc2)CS/C1=N\C(C)(C)C [buprofezin]
LC50 [2]: 1.98 µg/mL

CNC(=O)c1cc(Cl)cc(C)c1NC(=O)c1cc(Br)nn1-c1ncccc1Cl [chlorantraniliprole]
LC50 [3]: 1.2 µg/mL

CN/C(=N\[N+](=O)[O-])NCc1cnc(Cl)s1 [clothianidin]
LC50 [4]: 0.513 µg/mL (≈ 2.05 µM)

CNC(=O)c1cc(C#N)cc(C)c1NC(=O)c1cc(Br)nn1-c1ncccc1Cl [cyantraniliprole]
LC50 [5]: 36.2 µg/mL | LC50 [6]: 1.18 µg/mL

Nc1nc(N)nc(NC2CC2)n1 [cyromazine]
LC50 [7]: 5.06 µg/mL

CN/C(=N/CC1CCOC1)N[N+](=O)[O-] (stereo not drawn) [dinotefuran]
LC50 [8]: 75.3 µg/mL (≈ 372 µM)

CC(C)C(C(=O)OC(C#N)c1cccc(Oc2ccccc2)c1)c1ccc(Cl)cc1 (stereo not drawn) [fenvalerate]
LC50 [9]: 34.4 µg/mL

Cc1cc(C(F)(C(F)(F)F)C(F)(F)F)ccc1NC(=O)c1cccc(I)c1C(=O)NC(C)(C)CS(C)(=O)=O [flubendiamide]
LC50 [10]: 1.02 µg/mL

O=C(NC(=O)c1c(F)cccc1F)Nc1cc(Cl)c(OC(F)(F)C(F)F)c(Cl)c1 [hexaflumuron]
LC50 [11]: 5.57 µg/mL

O=[N+]([O-])NC1=NCCN1Cc1ccc(Cl)nc1 [imidacloprid]
LC50 [12]: 4.9 µg/mL

O=C(NC(=O)c1c(F)cccc1F)Nc1cc(Cl)c(OC(F)(F)C(F)C(F)(F)F)cc1Cl (stereo not drawn) [lufenuron]
LC50 [13]: 12.9 µg/mL

COc1cccc(C(=O)NN(C(=O)c2cc(C)cc(C)c2)C(C)(C)C)c1C [methoxyfenozide]
LC50 [14]: 8.95 µg/mL

CCN(Cc1ccc(Cl)nc1)/C(=C/[N+](=O)[O-])NC [nitenpyram]
LC50 [15]: 0.384 µg/mL

CC(c1ccc(C(F)(F)F)nc1)S(C)(=O)=NC#N (stereo not drawn) [sulfoxaflor]
LC50 (Aphis craccivora nymphs): 0.197 µg/mL (≈ 0.709 µM)

CNC(=O)c1cc(Cl)cc(Cl)c1NC(=O)c1cc(Br)nn1-c1ncc(Cl)cc1Cl [tetrachlorantraniliprole]
LC50 [16]: 0.6491 µg/mL (≈ 1.21 µM)

CNC(=O)c1cc(C#N)cc(C)c1NC(=O)c1cc(Cn2nnc(C(F)(F)F)n2)nn1-c1ncccc1Cl [tetraniliprole]
LC50 [17]: 0.0810 µg/mL

CN1COCN(Cc2cnc(Cl)s2)/C1=N\[N+](=O)[O-] [thiamethoxam]
LC50 [18]: 358.9351 µg/mL

CCc1nn(C)c(C(=O)NCc2ccc(Oc3ccc(C)cc3)cc2)c1Cl [tolfenpyrad]
LC50 [19]: 28.6 µg/mL

pyrethrin
LC50 [20]: 55.3268 µg/mL
